These results are taken from patent US6552080B1, “Fungicidal compounds having a fluorovinyl-or fluoropropenyl-oxyphenyloxime moiety and process for the preparation thereof” (Korea Research Institute of Chemical Technology, priority 1999, dated 2003).

SMILES strings stand for the structures. Like-named read-outs stand apart in the source and are kept apart here.

Assay [1] deals with Puccinia recondita. The assay can be described thus: Fungicidal activity against Wheat Leaf Rust (WLR) disease. The format is in vivo. As to conditions: Wheat Leaf Rust.
The test system of assay [2] is Botrytis cinerae. Nature of the assay: Fungicidal activity against Cucumber Gray Mold Rot (CGM) disease. The class given is in vivo. Conditions: Cucumber Gray Mold Rot; concentration 50 ppm.
In assay [3] the test system is Pyricularia oryzae Carvara KA301. The format is in vivo. Conditions: Rice Blast.
Assay [4] relates to Phytophthora infestans. The format is in vivo. As to conditions: Tomato Late Blight; concentration 50 ppm.
Assay [5] relates to Rhizoctonia solani AG-1. The assay can be described thus: Fungicidal activity against Rice Sheath Blight (RSB) disease. As to conditions: Rice Sheath Blight.
Procedure: To examine fungicidal activity of the compounds of the present invention, each of the compounds listed in Table 3 and 4 was dissolved in 10% acetone to a concentration of 250 ppm, and Tween-20 was added thereto to a concentration of 250 or 500 ppm. 50 ml of the resulting solution was sprayed on leaves of a host plant. The plant was kept at room temperature for 24 hours to let the solvent evaporate, and then, a pathogenic fungus was inoculated thereonto. The plant was held in a humidity chamber for 24 hours, transferred to an plant growth room kept at 20 to 27° C. and a relative humidity of 60 to 80% and kept to induce disease. […] This procedure was repeated twice for each test. 10% Acetone solution containing 250 ppm of Tween-20 was used as a control.
The fungicidal activity of the compound of the present invention is repressed by a control value (C.V.) calculated as; [formula]
Rhizoctonia solani AG-1 was cultured on a PDA medium (potato 200 g, dextrose 20 g, agar 20 g and distilled water 1 ? for 3 days and the agar disc(diameter 0.6 cm) was inoculated and cultured on sterilized wheat bran medium in a 1 L bottle at 26 to 28° C. for 7 days. A mycelial mass was ground using a homogenizer, inoculated uniformly on soil of a pot wherein a Nakdong rice plant having 2 or 3 leaves and an height of 5 cm grew, and kept in humidity polyvinyl chamber for 5 days to induce RSB. L.A. on a leaf sheath was measured to calculate an C.V.
Assay [6] relates to Erysiphae graminis. Nature of the assay: Fungicidal activity against Barley Powdery Mildew (BPM) disease. The class given is in vivo. As to conditions: Barley Powdery Mildew.

As to `CNC(=O)C(=NOC)c1ccccc1CON=Cc1cccc(OC(F)=C(c2cccc(C)c2)C(F)(F)F)c1` [Compound 140], the “WLR (Fungicidal Activities, C.V.)” value in assay [1] (concentration 2 ppm) came to 0%; in assay [1] (concentration 50 ppm), 100%. Besides, the “CGM (Fungicidal Activities, C.V.)” value in assay [2] is recorded as 0%. For the same compound, the “RCV (Fungicidal Activities, C.V.)” value in assay [3] (concentration 2 ppm) is listed as 86%; in assay [3] (concentration 50 ppm) it was 97%. Moreover, the “TLB (Fungicidal Activities, C.V.)” value in assay [4] came out at 0%. In addition, the “RSB (Fungicidal Activities, C.V.)” value in assay [5] (concentration 50 ppm) stood at 64%. In addition, the “BPM (Fungicidal Activities, C.V.)” value in assay [6] (concentration 50 ppm) came out at 86%.
For `CNC(=O)C(=NOC)c1ccccc1CON=Cc1cccc(OC(F)=C(c2cccc(OC)c2)C(F)(F)F)c1` [Compound 143], the “WLR (Fungicidal Activities, C.V.)” value is reported as 36% in assay [1] (concentration 2 ppm) and 90% in assay [1] (concentration 50 ppm). For the same compound, the “CGM (Fungicidal Activities, C.V.)” value in assay [2] was 0%. In addition, the “RCV (Fungicidal Activities, C.V.)” value in assay [3] (concentration 2 ppm) was determined as 83%; in assay [3] (concentration 50 ppm), 100%. Further, the “TLB (Fungicidal Activities, C.V.)” value in assay [4] is reported as 0%. In addition, in assay [5] (concentration 50 ppm), the “RSB (Fungicidal Activities, C.V.)” value is listed as 58%. The “BPM (Fungicidal Activities, C.V.)” value in assay [6] (concentration 2 ppm) was found to be 0%; in assay [6] (concentration 50 ppm), 93%.
Regarding `CCOc1ccc(C(=C(F)Oc2cccc(C=NOCc3ccccc3C(=NOC)C(=O)NC)c2)C(F)(F)F)cc1` [Compound 144], the “WLR (Fungicidal Activities, C.V.)” value in assay [1] (concentration 50 ppm) came to 86%. In addition, the “CGM (Fungicidal Activities, C.V.)” value in assay [2] amounted to 0%. Further, the “RCV (Fungicidal Activities, C.V.)” value came to 88% in assay [3] (concentration 2 ppm) and 96% in assay [3] (concentration 50 ppm). Further, the “TLB (Fungicidal Activities, C.V.)” value in assay [4] was found to be 0%. In addition, the “RSB (Fungicidal Activities, C.V.)” value in assay [5] (concentration 50 ppm) is on record as 47%. In addition, the “BPM (Fungicidal Activities, C.V.)” value in assay [6] (concentration 2 ppm) is recorded as 0%; in assay [6] (concentration 50 ppm), 95%.
Consider `CNC(=O)C(=NOC)c1ccccc1CON=Cc1cccc(OC(F)=C(c2ccc(F)cc2)C(F)(F)F)c1` [Compound 145], for which the “WLR (Fungicidal Activities, C.V.)” value in assay [1] (concentration 2 ppm) stood at 83%; in assay [1] (concentration 50 ppm) it was 100%. In addition, the “CGM (Fungicidal Activities, C.V.)” value in assay [2] turned out to be 0%. In addition, the “RCV (Fungicidal Activities, C.V.)” value in assay [3] (concentration 2 ppm) is recorded as 83%; in assay [3] (concentration 50 ppm), 100%. Besides, the “TLB (Fungicidal Activities, C.V.)” value in assay [4] was 0%. Moreover, the “RSB (Fungicidal Activities, C.V.)” value in assay [5] (concentration 50 ppm) was 64%. Further, the results for the “BPM (Fungicidal Activities, C.V.)” value in assay [6] (concentration 2 ppm) and in assay [6] (concentration 50 ppm) were 33% and 100%, respectively.
As to `COC=C(C(=O)OC)c1ccccc1CON=C(C)c1cccc(OC(F)=C(c2ccccc2)C(F)(F)F)c1` [Compound 150], the “WLR (Fungicidal Activities, C.V.)” value in assay [1] (concentration 2 ppm) amounted to 95%; in assay [1] (concentration 10 ppm) it was 100%; in assay [1] (concentration 50 ppm), 100%. Moreover, the “CGM (Fungicidal Activities, C.V.)” value in assay [2] was found to be 44%. The “RCV (Fungicidal Activities, C.V.)” value in assay [3] (concentration 2 ppm) came to 83%; in assay [3] (concentration 10 ppm), 100%; in assay [3] (concentration 50 ppm), 100%. Besides, in assay [4], the “TLB (Fungicidal Activities, C.V.)” value is 50%. The “RSB (Fungicidal Activities, C.V.)” value in assay [5] (concentration 2 ppm) stood at 55%; in assay [5] (concentration 10 ppm) it was 65%; in assay [5] (concentration 50 ppm) it was 92%. Besides, the “BPM (Fungicidal Activities, C.V.)” value in assay [6] (concentration 2 ppm), in assay [6] (concentration 10 ppm) and in assay [6] (concentration 50 ppm) was 100% throughout.
In the case of `COC=C(C(=O)OC)c1ccccc1CON=C(C)c1cccc(OC(F)=C(c2cccc(C)c2)C(F)(F)F)c1` [Compound 151], the “WLR (Fungicidal Activities, C.V.)” value in assay [1] (concentration 2 ppm) turned out to be 86%; in assay [1] (concentration 10 ppm) it was 95%; in assay [1] (concentration 50 ppm), 100%. Also, the “CGM (Fungicidal Activities, C.V.)” value in assay [2] worked out at 24%. Besides, the “RCV (Fungicidal Activities, C.V.)” value was 93% in assay [3] (concentration 2 ppm), 99% in assay [3] (concentration 10 ppm) and 100% in assay [3] (concentration 50 ppm). For the same compound, in assay [4], the “TLB (Fungicidal Activities, C.V.)” value was determined as 12%. Moreover, the “RSB (Fungicidal Activities, C.V.)” value was 35% in assay [5] (concentration 2 ppm), 55% in assay [5] (concentration 10 ppm) and 95% in assay [5] (concentration 50 ppm). For the same compound, the “BPM (Fungicidal Activities, C.V.)” value in assay [6] (concentration 2 ppm) is given as 98%; in assay [6] (concentration 10 ppm), 100%; in assay [6] (concentration 50 ppm) it was 100%.
In the case of `COC=C(C(=O)OC)c1ccccc1CON=C(C)c1cccc(OC(F)=C(c2ccc(C)cc2)C(F)(F)F)c1` [Compound 152], the “WLR (Fungicidal Activities, C.V.)” value in assay [1] (concentration 2 ppm) amounted to 86%; in assay [1] (concentration 10 ppm) it was 98%; in assay [1] (concentration 50 ppm) it was 100%. Besides, the “CGM (Fungicidal Activities, C.V.)” value in assay [2] amounted to 44%. For the same compound, the “RCV (Fungicidal Activities, C.V.)” value in assay [3] (concentration 2 ppm) is reported as 86%; in assay [3] (concentration 10 ppm), 97%; in assay [3] (concentration 50 ppm), 100%. Moreover, the “TLB (Fungicidal Activities, C.V.)” value in assay [4] stood at 0%. In addition, the “RSB (Fungicidal Activities, C.V.)” value turned out to be 45% in assay [5] (concentration 2 ppm), 60% in assay [5] (concentration 10 ppm) and 90% in assay [5] (concentration 50 ppm). Besides, the “BPM (Fungicidal Activities, C.V.)” value was 95% in assay [6] (concentration 2 ppm), 100% in assay [6] (concentration 10 ppm) and 100% in assay [6] (concentration 50 ppm).
Regarding `COC=C(C(=O)OC)c1ccccc1CON=C(C)c1cccc(OC(F)=C(c2ccc(C)c(C)c2)C(F)(F)F)c1` [Compound 153], the entries for the “WLR (Fungicidal Activities, C.V.)” value in assay [1] (concentration 2 ppm), in assay [1] (concentration 10 ppm) and in assay [1] (concentration 50 ppm) were 91%, 100% and 100%, respectively. For the same compound, the “CGM (Fungicidal Activities, C.V.)” value in assay [2] is 20%. The “RCV (Fungicidal Activities, C.V.)” value in assay [3] (concentration 2 ppm) came to 0%; in assay [3] (concentration 10 ppm), 25%; in assay [3] (concentration 50 ppm), 86%. Moreover, in assay [4], the “TLB (Fungicidal Activities, C.V.)” value amounted to 13%. For the same compound, the “RSB (Fungicidal Activities, C.V.)” value in assay [5] (concentration 50 ppm) was 55%. Moreover, the results for the “BPM (Fungicidal Activities, C.V.)” value in assay [6] (concentration 2 ppm), in assay [6] (concentration 10 ppm) and in assay [6] (concentration 50 ppm) were 83%, 99% and 100%, respectively.
For the compound `COC=C(C(=O)OC)c1ccccc1CON=C(C)c1cccc(OC(F)=C(c2cc(C)cc(C)c2)C(F)(F)F)c1` [Compound 154], the figures for the “WLR (Fungicidal Activities, C.V.)” value in assay [1] (concentration 2 ppm), in assay [1] (concentration 10 ppm) and in assay [1] (concentration 50 ppm) were 73%, 96% and 98%, respectively. The “CGM (Fungicidal Activities, C.V.)” value in assay [2] worked out at 58%. In addition, the “RCV (Fungicidal Activities, C.V.)” value in assay [3] (concentration 50 ppm) was 16%. In assay [4], the “TLB (Fungicidal Activities, C.V.)” value is 12%. The results for the “RSB (Fungicidal Activities, C.V.)” value in assay [5] (concentration 2 ppm), in assay [5] (concentration 10 ppm) and in assay [5] (concentration 50 ppm) were 25%, 35% and 90%, respectively. Moreover, the “BPM (Fungicidal Activities, C.V.)” value is recorded as 68% in assay [6] (concentration 2 ppm), 98% in assay [6] (concentration 10 ppm) and 100% in assay [6] (concentration 50 ppm).
With `CCc1ccc(C(=C(F)Oc2cccc(C(C)=NOCc3ccccc3C(=COC)C(=O)OC)c2)C(F)(F)F)cc1` [Compound 155], the “WLR (Fungicidal Activities, C.V.)” value in assay [1] (concentration 2 ppm) is 83%; in assay [1] (concentration 10 ppm), 99%; in assay [1] (concentration 50 ppm), 100%. Besides, in assay [2], the “CGM (Fungicidal Activities, C.V.)” value came out at 52%. Besides, in assay [3] (concentration 50 ppm), the “RCV (Fungicidal Activities, C.V.)” value worked out at 80%. In addition, the “TLB (Fungicidal Activities, C.V.)” value in assay [4] is on record as 6%. In assay [5] (concentration 50 ppm), the “RSB (Fungicidal Activities, C.V.)” value is recorded as 60%. Besides, the “BPM (Fungicidal Activities, C.V.)” value came to 95% in assay [6] (concentration 2 ppm), 99% in assay [6] (concentration 10 ppm) and 100% in assay [6] (concentration 50 ppm).
On to `CCCCc1ccc(C(=C(F)Oc2cccc(C(C)=NOCc3ccccc3C(=COC)C(=O)OC)c2)C(F)(F)F)cc1` [Compound 156], for which the “WLR (Fungicidal Activities, C.V.)” value came out at 95% in assay [1] (concentration 10 ppm) and 93% in assay [1] (concentration 50 ppm). The “CGM (Fungicidal Activities, C.V.)” value in assay [2] was 36%. Moreover, the “RCV (Fungicidal Activities, C.V.)” value in assay [3] (concentration 50 ppm) is 33%. The “TLB (Fungicidal Activities, C.V.)” value in assay [4] is 0%. Further, in assay [5] (concentration 50 ppm), the “RSB (Fungicidal Activities, C.V.)” value came out at 20%. Further, the “BPM (Fungicidal Activities, C.V.)” value in assay [6] (concentration 10 ppm) came out at 91%; in assay [6] (concentration 50 ppm), 92%.
For the compound `COC=C(C(=O)OC)c1ccccc1CON=C(C)c1cccc(OC(F)=C(c2cccc(OC)c2)C(F)(F)F)c1` [Compound 157], the “WLR (Fungicidal Activities, C.V.)” value is recorded as 98% in assay [1] (concentration 2 ppm), 100% in assay [1] (concentration 10 ppm) and 100% in assay [1] (concentration 50 ppm). For the same compound, the “CGM (Fungicidal Activities, C.V.)” value in assay [2] was found to be 68%. Also, the “RCV (Fungicidal Activities, C.V.)” value is listed as 33% in assay [3] (concentration 2 ppm), 76% in assay [3] (concentration 10 ppm) and 93% in assay [3] (concentration 50 ppm). In assay [4], the “TLB (Fungicidal Activities, C.V.)” value worked out at 6%. Moreover, in assay [5] (concentration 50 ppm), the “RSB (Fungicidal Activities, C.V.)” value is recorded as 60%. Further, the figures for the “BPM (Fungicidal Activities, C.V.)” value in assay [6] (concentration 2 ppm), in assay [6] (concentration 10 ppm) and in assay [6] (concentration 50 ppm) were 97%, 99% and 100%, respectively.
As for `COC=C(C(=O)OC)c1ccccc1CON=C(C)c1cccc(OC(F)=C(c2ccc(OC)cc2)C(F)(F)F)c1` [Compound 158], the results for the “WLR (Fungicidal Activities, C.V.)” value in assay [1] (concentration 2 ppm), in assay [1] (concentration 10 ppm) and in assay [1] (concentration 50 ppm) were 91%, 98% and 100%, respectively. Further, the “CGM (Fungicidal Activities, C.V.)” value in assay [2] worked out at 44%. Further, the “RCV (Fungicidal Activities, C.V.)” value in assay [3] (concentration 50 ppm) is recorded as 41%. The “TLB (Fungicidal Activities, C.V.)” value in assay [4] came to 0%. Moreover, the “RSB (Fungicidal Activities, C.V.)” value in assay [5] (concentration 50 ppm) stood at 70%. Moreover, the “BPM (Fungicidal Activities, C.V.)” value in assay [6] (concentration 2 ppm) came out at 98%; in assay [6] (concentration 10 ppm) it was 100%; in assay [6] (concentration 50 ppm), 100%.
